Assay results as given in ChEMBL document CHEMBL1149908, “Involvement of p21 and FasL in induction of cell cycle arrest and apoptosis by neochamaejasmin A in human prostate LNCaP cancer cells” (J Nat Prod, 2008).
Values after ≈ are worked out from the molar mass of the structure shown. Active and inactive are the calls of the source. The rule behind the calls is not given here.

Experiments:
[1] = test system: LNCaP; experiment: Induction of apoptosis in human LNCaP cells assessed as procaspase 8 cleavage at 50 ug/ml by immunoblot; format: functional, cell-based; settings: TDE = time-dependent effect
[2] = test system: LNCaP; experiment: Induction of procaspase 3 expression in human LNCaP cells at 6.25 ug/ml after 48 hrs by immunoblot; format: functional, cell-based
[3] = test system: LNCaP; experiment: Decrease in mitochondrial membrane potential in human LNCaP cells at 6.25 ug/ml after 18 hrs; format: functional
[4] = test system: LNCaP; experiment: Apoptotic activity in human LNCaP cells assessed as induction of Fas expression at 12.5 ug/ml after 24 hrs by immunoblot; format: functional, cell-based
[5] = test system: LNCaP; experiment: Increase in p21 mRNA expression in human LNCaP cells at >12.5 ug/mL after 24 hrs by RT-PCR; format: functional, cell-based
[6] = test system: LNCaP; experiment: Decrease of PCNA expression in human LNCaP cells after 24 hrs by immunoblotting analysis; format: functional, cell-based
[7] = test system: LNCaP; experiment: Induction of apoptosis in human LNCaP cells assessed as procaspase 8 cleavage by immunoblot; format: functional, cell-based
[8] = test system: LNCaP; experiment: Cell cycle arrest in human LNCaP cells assessed as accumulation in G1 phase at 6.25 ug/ml after 4 days; format: functional
[9] = test system: LNCaP; experiment: Apoptotic activity in human LNCaP cells assessed as induction of FasL expression at 12.5 ug/ml after 6 hrs by immunoblot; format: functional, cell-based
[10] = test system: LNCaP; experiment: Induction of procaspase 3 expression in human LNCaP cells at 50 ug/ml after 48 hrs by immunoblot; format: functional, cell-based
[11] = test system: LNCaP; experiment: Cell cycle arrest in human LNCaP cells assessed as reduction of G1 phase at > 6.25 ug/ml after 4 days; format: functional, cell-based
[12] = test system: LNCaP; experiment: Increase in intracellular ROS generation in human LNCaP cells at 6.25 ug/ml after 30 mins; format: functional
[13] = test system: LNCaP; experiment: Induction of apoptosis in human LNCaP cells assessed as procaspase 8 cleavage at 12.5 ug/ml by immunoblot; format: functional, cell-based; settings: TDE = time-dependent effect
[14] = test system: LNCaP; experiment: Induction of apoptosis in human LNCaP cells assessed as procaspase 3 cleavage by immunoblot; format: functional, cell-based
[15] = test system: LNCaP; experiment: Apoptotic activity in human LNCaP cells assessed as induction of p21 expression at 12.5 ug/ml after 12 hrs by immunoblot; format: functional, cell-based
[16] = target: Transcription factor Jun (Homo sapiens) (UniProt P05412); experiment: Reduction of AP1 binding to cyclin D promoter in human LNCaP cells by electrophoretic mobility shift assay; format: cell-based
[17] = test system: LNCaP; experiment: Effect on cell morphology in human LNCaP cells assessed as loss of cell surface structure at => 12.5 ug/mL; format: functional
[18] = test system: LNCaP; experiment: Cell cycle arrest in human LNCaP cells assessed as accumulation in S phase at 6.25 ug/ml after 4 days; format: functional
[19] = test system: LNCaP; experiment: Apoptotic activity in human LNCaP cells assessed as induction of FasL expression after 12 hrs; format: functional, cell-based
[20] = test system: LNCaP; experiment: Induction of apoptosis in human LNCaP cells assessed as procaspase 3 cleavage at 50 ug/ml by immunoblot; format: functional, cell-based; settings: TDE = time-dependent effect
[21] = test system: LNCaP; experiment: Induction of procaspase 3 expression in human LNCaP cells at 25 ug/ml after 48 hrs by immunoblot; format: functional, cell-based
[22] = test system: L929; experiment: Cytotoxicity against mouse L929 cells after 48 hrs by MTT assay; format: cell-based; settings: L929, 48 h
[23] = test system: LNCaP; experiment: Reduction of NF-kappaB binding to cyclin D promoter in human LNCaP cells by electrophoretic mobility shift assay; format: cell-based
[24] = test system: LNCaP; experiment: Induction of apoptosis in human LNCaP cells assessed as procaspase 3 cleavage at 12.5 ug/ml by immunoblot; format: functional, cell-based; settings: TDE = time-dependent effect
[25] = test system: SW-620; experiment: Cytotoxicity against human SW620 cells after 48 hrs by MTT assay; format: functional, cell-based; settings: SW-620, 48 h
[26] = test system: LNCaP; experiment: Induction of apoptosis in human LNCaP cells assessed as subG1 phase accumulation at > 6.25 ug/ml after 4 days; format: functional, cell-based
[27] = test system: LNCaP; experiment: Increase in intracellular ROS generation in human LNCaP cells at 50 ug/ml after 30 mins; format: functional
[28] = test system: LNCaP; experiment: Decrease in mitochondrial membrane potential in human LNCaP cells at 50 ug/ml after 18 hrs; format: functional, cell-based
[29] = test system: LNCaP; experiment: Cytotoxicity against human LNCaP cells after 48 hrs by MTT assay; format: functional, cell-based
[30] = test system: LNCaP; experiment: Decrease of cyclin D expression in human LNCaP cells after 24 hrs by immunoblotting analysis; format: functional, cell-based

Chain of Transcription factor Jun (Homo sapiens) (P05412 whole entry): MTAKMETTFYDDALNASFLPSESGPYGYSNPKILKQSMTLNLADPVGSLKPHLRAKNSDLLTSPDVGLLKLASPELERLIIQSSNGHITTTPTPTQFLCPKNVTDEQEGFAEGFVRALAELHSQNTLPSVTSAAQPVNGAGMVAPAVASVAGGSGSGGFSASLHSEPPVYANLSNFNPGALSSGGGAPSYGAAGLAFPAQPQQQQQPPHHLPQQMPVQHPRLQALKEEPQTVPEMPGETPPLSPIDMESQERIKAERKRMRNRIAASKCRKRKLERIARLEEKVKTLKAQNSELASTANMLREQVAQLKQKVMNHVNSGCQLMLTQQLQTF

## O=C1c2c(O)cc(O)cc2O[C@H](c2ccc(O)cc2)[C@@H]1[C@@H]1C(=O)c2c(O)cc(O)cc2O[C@@H]1c1ccc(O)cc1 [NEOCHAMAEJASMIN A]
[1]
  Activity: tde
[2]
  Activity: Active
[3]
  fold change (FC): 1.6
[4]
  Activity: Active
[5]
  Activity: Active
[6]
  Activity: Dose-dependent effect
[7]
  Activity: Dose-dependent effect
[8]
  Activity: 75%
[9]
  Activity: Active
[10]
  Activity: Active
[11]
  Activity: Dose-dependent effect
[12]
  fold change (FC): 1.5
[13]
  Activity: tde
[14]
  Activity: Dose-dependent effect
[15]
  Activity: Active
[16]
  Activity: Active
[17]
  Activity: >=12.5 ug ml-1
[18]
  Activity: <10%
[19]
  Activity: Dose-dependent effect
[20]
  Activity: tde
[21]
  Activity: Active
[22]
  IC50: 90 µg/mL (≈ 166 µM)
[23]
  Activity: Active
[24]
  Activity: tde
[25]
  IC50: 25.1 µg/mL (≈ 46.3 µM)
[26]
  Activity: Active
[27]
  fold change (FC): 3.5
[28]
  Activity: Active
[29]
  IC50: 12.5 µg/mL (≈ 23 µM)
[30]
  Activity: Dose-dependent effect
